According to article PMC10215749, “Determination of the affinity constants for phage display albumin-binding peptides” (PeerJ, 2023):

Experiments:
HSA [1] = target: T1, HSA (Homo sapiens, UniProt P02768); assay: Relative dissociation constant of peptide-fused phage by double-reciprocal plot of phage titers
Description: A single E. coli ER2738 colony was inoculated into 10 mL LB-Tet medium and incubated at 37 °C by shaking until mid-log phase (OD600∼0.5) for phage titering. Phage solutions were diluted 10-fold serially in TBS (50 mM Tris–HCl, pH 7.5, 150 mM NaCl) and aliquots of these solutions (50 µL) were added to a suspension of the prepared ER2738 cells (450 µL), 1 for each phage dilution. The phage-infected ER2738 cells (100 µL) were then poured from each dilution tube to an LB-Tet-IPTG-X-gal plate and the plates were incubated overnight at 37 °C. We determined the number of phage particles contained in the original stock phage culture by counting the number of plaques formed on the seeded agar plate and multiplying this by the dilution factor.
The concentration of bound phage [ ϕT] and free phage [ ϕ] can be calculated from the mass conservation equation, where [ ϕ] T is the total concentration of input phage and the concentration of target bound phage [ ϕT] can be estimated by eluted phage concentration [ ϕ] e, which is very much less than [ ϕ] T in our experiment. (6) ϕ=ϕt−ϕe≈ϕt (7) ϕT≈ϕe.
A double reciprocal plot of phage-target affinity measurement is generated by plotting 1/[ ϕ] e as a function of 1/[ ϕ] t. The slope is Kd/[T], the intercept on the vertical axis is 1/[T], and the intercept on the horizontal axis is −1/ Kd. […] (8) 1/ϕe=Kd/Tϕt+1/T.
Then TBST buffer wash the unbound phages, followed by the elution of the bound phages to the well with glycine-HCl, pH2.2. The concentration of input and eluted phage was quantitated by titration. […] These phage-fused peptides were subjected to DNA sequencing and their corresponding heptapeptide sequences are also shown in Table 3.

HSA [2] = target: T1, HSA; assay: Phage clone binding to HSA, specificity ratio by phage titer; set-up: purchased Sigma; conditions: for Blank control phage titre: single clone eluted from blank control well; for Blank control phage titre / Elute phage titre (HSA-coated well): input 1.16 × 10^12 (HSA-3), 1.34 × 10^13 (HSA-4) pfu/ml; for Elute phage titre (HSA-coated well): single clone
Description: After rapid washing three times with TBST (TBS + 0.1% [v/v] Tween-20), 100 µL of the diluted phage library (∼2 × 10^11 phage) was added to the well of the coated plate and rocked gently to let them absorb for 60 min. Following 10 washes with TBST, the bound phages were eluted with 0.2 M Gly-HCl, pH 2.2. The 100 µL that was eluted was neutralized with 15 µL Tris–HCl (1 M, pH 9.1) immediately. A small amount of eluted phage was titered as described above and the rest of elutes were added to 20 ml ER2738 culture (OD 600∼0.5) to be amplified 4.5 h at 37 °C for the next round.
To evaluate the efficiency of the phage display panning procedure, we created two selection criteria: the recovery yield and the specificity ratio. The recovery yield is the ratio of the titer of the eluted phage to the input phage. The specificity ratio is the ratio of the titer of the eluted phage from the target coated well to the blank control well. Recovery Y ield%=Elutephagetiterfromtarget/Inputphagetiter×100 Specificity Ratio=Elutephagetiterfromtarget/Elutephagetiterfromblank.
The amplified culture of phage clones was transferred to a 50 mL centrifuge tube and centrifuged for 10 min at 10,000 rpm at 4 °C with a high-speed refrigerated centrifuge (Himac CR21G). The supernatant was decanted to a fresh tube and precipitated by 1/5 volume of PEG/-NaCl (20% [w/v] Polyethylene Glycol–8000, 2.5 M NaCl) at 4 °C overnight and centrifuged for 20 min at 10,000 rpm. The supernatant was discarded and the sediment containing phage was suspended with TBS. To precipitate the phage again, a 1/5 volume of PEG/NaCl was added to the culture and it was stored at 4 °C for at least 60 min. The PEG suspension was centrifuged for 10 min at 10,000 rpm, the phage precipitate was suspended in 500 µL of TBS.
The sequences of HSA-binding peptides were determined by DNA sequencing of the selected phage using −96 gIII sequencing primer 5′-[…]-3′ in the Ph.D-7 phage library.
The specificity ratio was used to determine if positive phage clones with high HSA-binding affinity were isolated. […] We tested the selected clones with significant specificity ratios as potential HSA-binders, after screening many phage clones that consisted of microplate-surface-binding phages, the specific and non-specific target-binding phages, from the target-binding plate as shown in Table 3. The two selected clones, HSA-3 and HSA-4, show specificity ratios of 7.4 and 9.8, respectively, confirming that our method in the panning process is effective.

Human serum albumin [3] = target: T2, Human serum albumin (human, UniProt P02768 25-609); assay: phage binding to coated microplate, read by phage titer (specificity ratio); HSA coated in microplate wells, no blocking protein; purified phage clone added, washed with TBST, eluted with Gly-HCl pH 2.2 and titered; ratio of the eluted titer from the HSA well to that from a blank well; conditions: both partners purified
T2 construct: human serum albumin (HSA), bought from Sigma, coated on microplate wells; also called HSA; HSA target; source: bought: Sigma

Human serum albumin [4] = target: T2, Human serum albumin; assay: phage binding to coated microplate, read by phage titer (double reciprocal plot); constant HSA coated in microtiter wells, varying input phage until equilibrium, TBST wash, elution with glycine-HCl pH 2.2, input and eluted phage titered; relative dissociation constant = slope/intercept of 1/eluted against 1/input; conditions: both partners purified

Question: What does the source list for AESQKLN [HSA-3]?
Answer: Elute phage titer Φe (HSA [1]; HSA-3, sample 1, input 1.13×10^14 pfu/L): 7.94×10^6 pfu/L; Elute phage titer Φe (HSA [1]; HSA-3, sample 2, input 5.8×10^13 pfu/L): 7.5×10^6 pfu/L; Elute phage concentration [Φ]e (HSA [1]; HSA-3, sample 2, input concentration printed 1.03×10^7 mol/L): 7.98e-13 mol/L; Elute phage titer Φe (HSA [1]; HSA-3, sample 3, input 3.36×10^13 pfu/L): 5.68×10^6 pfu/L; Elute phage concentration [Φ]e (HSA [1]; HSA-3, sample 3, input concentration printed 1.79×10^7 mol/L): 1.06e-14 mol/L; Elute phage concentration [Φ]e (HSA [1]; HSA-3, sample 4): 2.39e-14 mol/L; Elute phage titer Φe (HSA [1]; HSA-3, sample 4, input 2.16×10^13 pfu/L): 2.52×10^6 pfu/L; Elute phage titer Φe (HSA [1]; HSA-3, sample 5, input 1.52×10^13 pfu/L): 2×10^6 pfu/L; Elute phage concentration [Φ]e (HSA [1]; HSA-3, sample 5, input concentration printed 3.99×10^7 mol/L): 3.03e-14 mol/L; Blank control phage titre (HSA [2]): 1.24 × 10^5 pfu/ml; Elute phage titre (HSA-coated well) (HSA [2]): 9.16 × 10^5 pfu/ml

Question: Which results are given for ITPLPLR [HSA-4]?
Answer: Elute phage titer Φe (HSA [1]; HSA-4, sample 1, input 5.90×10^13 pfu/L): 5.0×10^6 pfu/L; Elute phage titer Φe (HSA [1]; HSA-4, sample 2, input 3.88×10^13 pfu/L): 4.32×10^6 pfu/L; Elute phage concentration [Φ]e (HSA [1]; HSA-4, sample 2, input concentration printed 1.55×10^7 mol/L): 1.4e-14 mol/L; Elute phage titer Φe (HSA [1]; HSA-4, sample 3, input 2.93×10^13 pfu/L): 2.87×10^6 pfu/L; Elute phage concentration [Φ]e (HSA [1]; HSA-4, sample 3, input concentration printed 2.05×10^7 mol/L): 2.1e-14 mol/L; Elute phage titer Φe (HSA [1]; HSA-4, sample 4, input 2.48×10^13 pfu/L): 2.8×10^6 pfu/L; Elute phage concentration [Φ]e (HSA [1]; HSA-4, sample 4, input concentration printed 2.44×10^7 mol/L): 2.2e-14 mol/L; Elute phage titer Φe (HSA [1]; HSA-4, sample 5, input 2.10×10^13 pfu/L): 2.16×10^6 pfu/L; Elute phage concentration [Φ]e (HSA [1]; HSA-4, sample 5, input concentration printed 2.86×10^7 mol/L): 2.8e-14 mol/L; Kd (HSA [1]; read-out: Relative dissociation constant, phage-fused peptide vs immobilized HSA, double-reciprocal plot 1/[Φ]e vs 1/[Φ]t, linear regression, elution glycine-HCl pH 2.2): 388 nM; Blank control phage titre (HSA [2]): 5.22 × 10^5 pfu/ml; Elute phage titre (HSA-coated well) (HSA [2]): 5.12 × 10^6 pfu/ml; Specificity ratio (HSA [2]; titer of eluted phage from target coated well / from blank control well): 9.8

B1: HSA-3 peptide fused phage (peptide)
peptide: AESQKLN
notes: DNA GCGGAGAGTTAGAAGCTTAAT (TAG printed as Q); Measured as the peptide on whole phage, not as a free peptide; source: M13 phage clone from the Ph.D.-7 library, amplified in E. coli ER2738, purified (PEG/NaCl precipitation)
Question: What does the source list for B1?
Answer: specificity ratio (Human serum albumin [3]): 7.4; Kd (Human serum albumin [4]): 529 nM
